Like-named read-outs stand apart in the source and are kept apart here.
System: biological indicators
Conditions: for Biological Indicator Results: STERRAD 50, 6 minutes contact, plasma 400 watts
Method: The biological indicator is placed into the sterilizer with the equipment to be sterilized. At the end of the sterilization process, the biological indicator is removed from the sterilizer, and the carrier is immersed in a sterile culture medium. The culture medium and carrier are incubated for a predetermined time at an appropriate temperature. At the end of the incubation period, it is determined whether any microorganisms have grown in the growth medium. If there is no growth of microorganisms in the growth medium, it is assumed that the equipment in the sterilizer has been properly sterilized. If microorganism growth is observed, the sterilization process was not effective, and the articles in the sterilizer are rejected for use. The growth of microorganisms is determined through a signal such as the generation of turbidity or a color change in a pH indicator due to a pH change from byproducts of cell growth in the medium. Biological indicators are described, for example, in U.S. Pat. Nos. 5,552,320 and 6,436,659, both of which are incorporated herein by reference in their entirety.
A series of integrators was prepared by contacting paper disks with an aqueous solution of arginine. The integrators were placed in a STERRAD® 50 sterilizer with a load of equipment to be sterilized and several biological indicators. The paper disks are absorbing substrates.
The sterilizer was evacuated to 0.8 torr. Plasma was produced in the chamber for 15 minutes to condition the load. The sterilizer was evacuated further to 0.4 torr, and hydrogen peroxide was injected and contacted with the load, integrators, and biological indicators for 6 minutes.
The sterilizer was vented with air for 2 minutes. The sterilizer was evacuated again to 0.5 torr, and plasma was produced for an additional 2 minutes. The plasma power was 400 watts for both plasma exposures.

## OO [Hydrogen Peroxide, hydrogen peroxide]
Hydrogen peroxide injection of 300 μL in the STERRAD 50 sterilizer
  Biological indicator (BI) result: negative
Hydrogen peroxide injection volume 100 μL
  Biological Indicator Results: 100% positive
Hydrogen peroxide injection volume 250 μL
  Biological Indicator Results: 40% positive
Hydrogen peroxide injection volume 400 μL
  Biological Indicator Results: 0% positive
Hydrogen peroxide injection volume 500 μL
  Biological Indicator Results: 0% positive

Reference: patent US20070092969A1, “Integrator system and method for rapidly determining effectiveness of a germicidal treatment” (priority 2005, published 2007)
